# Test results published in PubChem BioAssay AID488890 (Southern Research Specialized Biocontainment Screening …, 2010).
# Inconclusive results are not listed. The source made the active and inactive calls. The rule behind the calls is not given here.
# Test system: Mycobacterium tuberculosis non-replicating, growth inhibition
# Test: growth inhibition of non-replicating M. tuberculosis (AID 488890)
row,Structure (SMILES),IC50
1,Cc1ccccc1-n1c(C)cc(/C=N/NC(=O)c2ccncc2)c1C,0.65 µM
2,Cc1ccc(NC(=O)COc2ccccc2CNC(C)(C)CC(C)(C)C)cc1,16.5 µM (inactive)
3,CC(C)c1ccc(C2=C(O)c3ccccc3C(=O)C2=O)cc1,3.7 µM
4,O=C1CCC(=O)N1CNc1ccc(Oc2ccccc2)cc1,2.02 µM
5,COc1ccc(-c2nc(C=O)cs2)cc1,5.84 µM
6,O=C(CC(=O)c1ccccc1O)c1cccc(F)c1,8.89 µM
7,c1ccc(-c2nc3c(ccc4ccccc43)[nH]2)nc1,17.8 µM (inactive)
8,Cc1ccccc1OCCNc1cc(N2CC(C)NC(C)C2)ccc1[N+](=O)[O-] (centres undefined),10.8 µM (inactive)
9,CCSc1nsc(NC(=O)Nc2ccc(F)cc2F)n1,18.9 µM (inactive)
10,CC(C)c1ccc2[nH]c3c(c2c1)CCC/C3=N\NC(=O)c1ccncc1,8.7 µM
11,COc1ccccc1OCC(=O)N/N=C/C=C/c1ccc([N+](=O)[O-])o1,2.78 µM
12,Cc1ccc(C(=O)NNC(=S)NC(=O)c2ccc(Cl)cc2)cc1,4.01 µM
13,O=C(Nc1nc2ccc(F)cc2s1)c1ccccn1,0.11 µM
14,CCN1/C(=C(\O)c2ccccc2)C(=O)c2ccccc2S1(=O)=O,15.8 µM (inactive)
15,CN(/N=C/c1ccc([N+](=O)[O-])o1)c1ccccc1,13.4 µM (inactive)
16,C=C1Cn2c(nnc2-c2ccc(Cl)cc2)S1,12.8 µM (inactive)
17,O=C(NCc1ccc(F)cc1)c1cnccn1,3.86 µM
18,CCCN(CCC)CCNC(=O)c1cc2c(-c3ccc(Cl)cc3)nn(C)c2s1,22.5 µM (inactive)
19,O=C(Nc1cccnc1)c1cc(Cl)ccc1Cl,18.8 µM (inactive)
20,O=C(NNC(=S)NC(=O)c1cn(-c2ccccc2)nc1-c1ccccc1)c1ccncc1,21.9 µM (inactive)
21,CC(=O)Oc1c(-c2ccc(Br)o2)oc2ccccc2c1=O,2.86 µM

row,Structure (SMILES),IC50
1,CCn1c(O)c(C(=O)CC2NCCc3ccccc32)c(=O)n(CC)c1=S (centres undefined),21.8 µM (inactive)
2,NC(N)=N/N=C/c1cc([N+](=O)[O-])ccc1O,4.29 µM
3,COC(=O)CC(=O)N1CCN(c2ccc(Cl)c(Cl)c2)CC1,5.82 µM
4,Clc1ccc(OCCCNCc2ccccc2)c2ccccc12,5.99 µM
5,COc1cccc(/C=N/N2C(=O)CSC2=S)c1O,23.9 µM (inactive)
6,CCOc1ccc(C(=O)N/N=C/c2cccc3cccnc23)cc1,4.65 µM
7,CCCOC(=O)c1ccc(NC(=O)c2ccc(Br)o2)cc1,2.96 µM
8,Cc1ccccc1-n1ncc2c([N+](=O)[O-])cc([N+](=O)[O-])cc21,4.83 µM
9,N#Cc1ccsc1NC(=O)c1ccc(Cl)c([N+](=O)[O-])c1,4.4 µM
10,O=C(N/N=C/C=C/c1ccccc1)c1cccs1,45.2 µM (inactive)
11,O=C(CC1CCCCC1)NCc1ccccc1,5.92 µM
12,O=C(c1ccc([N+](=O)[O-])o1)N1CCc2ccccc2C1,5.15 µM
13,CCc1ccc(C(=O)COC(=O)c2ccc(Cl)nc2)cc1,17.3 µM (inactive)
14,N=c1oc2ccccc2cc1C(=O)NC1CCCCCC1,7.31 µM
15,CC(C)c1ccc2c(c1)C(N1CCNCC1)Cc1ccc(F)cc1S2 (centres undefined),14.5 µM (inactive)
16,COc1ccc(NCC(=O)N2CCCC2)cc1Cl,10.8 µM (inactive)
17,Cc1cc(C(=O)NNc2cc(Cl)ccc2Cl)no1,18.7 µM (inactive)
18,CCc1ccc(OCC(=O)c2c(O)c3ccccc3oc2=O)cc1,9.35 µM
19,Cc1nc2ccc(OC(=O)c3ccccc3)cc2s1,20.9 µM (inactive)
20,COc1ccc(C(=O)OCn2nnc3ccccc3c2=O)cc1,28.6 µM (inactive)
21,CCOc1ccc2nc(/N=C/c3nc(-c4ccccc4)oc3O)sc2c1,6.2 µM

row,Structure (SMILES),IC50
1,Cc1ccc(N=Nc2c(C)[nH]n(C(N)=S)c2=O)cc1C,0.57 µM
2,CCC(=O)N1CCN(c2cc3c(cc2F)c(=O)c(C(=O)O)cn3CC)CC1,7.67 µM
3,Fc1ccc(-c2nnc(CSc3nnc(-c4cccs4)o3)o2)cc1,3.68 µM
4,O=C(OCCCCN1C(=O)c2ccccc2C1=O)c1ccc(Br)o1,6.06 µM
5,Cn1c(SCc2c(F)cccc2Cl)nc2c(c1=O)SCC2,28.2 µM (inactive)
6,CC(C)(C)c1cc(C(=O)N/N=C/c2ccc([N+](=O)[O-])s2)n[nH]1,5.5 µM
7,COc1ccc(Cc2nnc(-c3ccccc3)o2)cc1,0.19 µM
8,O=C(Nc1nc2ccccc2[nH]1)c1cccc(Cl)c1,9.06 µM
9,Cc1cc(-c2c(C)[nH]n(-c3ccccc3)c2=O)n[nH]1,29.2 µM (inactive)
10,O=C1NC(=O)N(Cc2ccc(F)cc2)C(=O)/C1=C\c1ccc([N+](=O)[O-])s1,11.2 µM (inactive)
11,CCOC(=O)CCCNC(=O)COC(=O)c1cc(Br)c(Br)s1,9.34 µM
12,CC(C)CSc1nnc2c3ccccc3n(C)c2n1,26.3 µM (inactive)
13,Cc1c(CN(C)C)c2c(n1Cc1ccccc1)C(=O)c1ccc(Br)cc1-2,16 µM (inactive)
14,CC(=O)c1ccc(OC(=O)c2ccc(-n3nc(C)cc3C)cc2)cc1,2.45 µM
15,C=CCn1c(C)cc(C2=NNC(=NCc3ccccc3)SC2)c1C,7.71 µM
16,Cc1ccc(C)c(-c2nnc(NC(=O)c3ccco3)o2)c1,0.66 µM
17,COc1ccc(-c2cc(O)cc(O)c2)cc1,6.15 µM
18,Cc1ncsc1CCOC(=O)c1ccc([N+](=O)[O-])cc1,10.4 µM (inactive)
19,COc1ccccc1NC(=O)c1ccc([N+](=O)[O-])o1,1.12 µM
20,CCCCc1ccc(NS(=O)(=O)c2c(C)n(C)c(=O)n(C)c2=O)cc1,27.1 µM (inactive)
21,COc1ccc(OCCSc2nnc(Cc3cccc4ccccc34)n2N)cc1,23.6 µM (inactive)

row,Structure (SMILES),IC50
1,CC(/C=C/c1ccco1)=N/NC(=O)c1ccc(C)nc1,13.4 µM (inactive)
2,Cc1ccccc1N1CCN(Cc2ccc([N+](=O)[O-])o2)CC1,3.25 µM
3,CCOC(=O)Cc1c(C)nc2c(-c3cccc(Br)c3)c[nH]n2c1=O,4.13 µM
4,CC(Oc1ccc(Cl)cc1)C(=O)NNC(=S)NC(=O)c1ccco1 (centres undefined),22.3 µM (inactive)
5,NC(N)=N/N=C/c1cccc([N+](=O)[O-])c1O,2.01 µM
6,Nc1ccccc1C#CC(=O)c1ccccc1,< 0.1 µM
7,Nc1ccc2nc3c(c(Cl)c2c1)CCCC3,13.4 µM (inactive)
8,N/C(=N\OC(=O)CC1CCCCC1)c1ccncc1,6.38 µM
9,CN(C)CCNc1c2c(c(C#N)c3nc4ccccc4n13)CCCC2,14.5 µM (inactive)
10,Cc1ccccc1-n1sc2cc(F)ccc2c1=O,9.85 µM
11,CCc1ccc(N2C(=O)CC(N3CCC(C(=O)OC)CC3)C2=O)cc1 (centres undefined),34.6 µM (inactive)
12,COC(=O)c1ccc(N2CCN(CCNC(=O)Nc3ccc(OC)cc3)CC2)cc1,6.13 µM
13,O=C(NC12CC3CC(CC(C3)C1)C2)c1ccc([N+](=O)[O-])o1,5.44 µM
14,CC(C)c1nnc(NC(=O)c2c(O)c3cccc4c3n(c2=O)CCC4)s1,1.24 µM
15,Nc1c(Cl)cc(Cl)cc1C(=O)OCC(=O)N1CCCC1,2.46 µM
16,O=C(COc1ccc2c(c1)CCC2)Nc1ccccn1,11.6 µM (inactive)
17,CCOc1cc(C=O)cc(N=Nc2cccc([N+](=O)[O-])c2)c1O,1.31 µM
18,O=S(=O)(Nc1nccs1)c1ccc(NCc2cc(Br)cc(Br)c2O)cc1,10.7 µM (inactive)
19,CC1CCCC(NCC(O)COC(c2ccc(F)cc2)c2ccc(F)cc2)C1C (centres undefined),5.8 µM
20,CC(C)Cc1nnc(NC(=O)CCS(=O)(=O)c2ccc(Cl)cc2)s1,5.37 µM
21,O=C(Nc1nccs1)c1ccc2ccccc2c1,13.8 µM (inactive)
